Data set [1] concerns Huh7 cells expressing a subgenomic RNA replicon of Con1 (genotype 1b) sequence origin. In words: microbe, parasite or virus in culture. Conditions: Hepatitis C virus.
Another data set can be described thus: in vitro. The settings on record: human.
Setting [2] is: Huh-7, read-out: IC50 (uM) [SG].
[3] abbreviates: Huh-7, read-out: Max Effect@CC30 (inhibition).
[4] abbreviates: GETYPE1B, Huh-7, 72 h, read-out: Max Effect @CC30 (inhibition).

Structures can show the parent of a compound that is named as a salt. Where two headings read alike, the source gives them in different places.

With `CC(=O)N(C)c1ccc2c(c1)[C@@H](N(C)C)CC[C@H]2c1ccc(Cl)c(Cl)c1`, the IC50 in data set [1] (setting [2]) came to 3.79 µM. Further, in data set [1] (setting [3]), the Emax is 91.7%. In “in vitro” (CC50 (uM) [SG]), this molecule returned a CC50 of 14.6 µM. Regarding `CN[C@@H]1CC[C@H](c2ccc(Cl)c(Cl)c2)c2ccccc21` [1R,4R Sertraline Enantiomer, (1R,4R)-4-(3,4-dichlorophenyl)-N-methyl-1,2,3,4-tetrahydronaphthalen-1-amine], the Emax in data set [1] (setting [4]) came to 42%; in data set [1] (setting [3]) it was 58.7 ± 23.6%. For the same molecule, the CC50 at 72 h in “in vitro” (CC50 (uM)) turned out to be 14.3 µM. This molecule also registered a CC50 in the data set “in vitro” (CC50 (uM) [SG]) of 14.6 ± 0.37 µM. On to `CN(CCO)[C@H]1CC[C@@H](c2ccc(Cl)c(Cl)c2)c2ccc(C[S+](C)[O-])cc21` (stereo partly drawn) [2-(((1S,4S)-4-(3,4-dichlorophenyl)-7-(methylsulfinylmethyl)-1,2,3,4-tetrahydronaphthalen-1-yl)(methyl)amino)ethanol], for which, in data set [1] (setting [2]), the 50% inhibitory concentration (IC50) came to 24.2 µM. In “in vitro” (CC50 (uM) [SG]), this molecule came in with a CC50 above 50 µM. Turning to `O=C1CC[C@@H](c2ccc(Cl)c(Cl)c2)c2ccccc21` [4S-Sertraline Ketone, (S)-4-(3,4-dichlorophenyl)-3,4-dihydronaphthalen-1(2H)-one], the half-maximal inhibitory concentration (IC50) in data set [1] (setting [2]) is 32.6 µM. For the same molecule, the Emax in data set [1] (setting [3]) came to 77%. For the same molecule, the CC50 in the data set “in vitro” (CC50 (uM) [SG]) is above 50 µM. `CN[C@H]1CC[C@@H](c2ccc(Cl)c(Cl)c2)c2ccc(CS(=O)(=O)c3ccccc3)cc21` [(1S,4S)-4-(3,4-dichlorophenyl)-N-methyl-7-(phenylsulfonylmethyl)-1,2,3,4-tetrahydronaphthalen-1-amine]: in data set [1] (setting [2]), the IC50 was 6.24 µM. Further, in the data set “in vitro” (CC50 (uM) [SG]), the CC50 is 6.7 µM.

Regarding `N[C@H]1CC[C@@H](c2ccc(Cl)c(Cl)c2)c2ccccc21` [(1S,4S)-Desmethyl Sertraline, (1S,4S)-4-(3,4-dichlorophenyl)-1,2,3,4-tetrahydronaphthalen-1-amine], the Emax in data set [1] (setting [4]) and in data set [1] (setting [3]) was 0% throughout. In addition, the half-inhibitory concentration (IC50) was 7.5 ± 0.4 µM in data set [1] (Huh-7, 72 h) and 7.5 µM in data set [1] (setting [2]). Further, the CC50 in “in vitro” (CC50 (uM)) and in “in vitro” (CC50 (uM) [SG]) was 8.98 ± 0.1 µM throughout.

On to `CN(C)[C@H]1CC[C@@H](c2ccc(Cl)c(Cl)c2)c2ccc(C(=O)NCC3CC3)cc21` [(5S,8S)—N-(cyclopropylmethyl)-5-(3,4-dichlorophenyl)-8-(dimethylamino)-5,6,7,8-tetrahydronaphthalene-2-carboxamide], for which, in data set [1] (Huh-7), the 90% effect concentration (IC90) is 12.2 µM. Further, the IC50 in data set [1] (setting [2]) was 5.61 µM. The molecule further gave a CC50 in the data set “in vitro” (CC50 (uM) [SG]) of 19.4 µM. In the case of `CN(C)[C@H]1CC[C@@H](c2ccc(Cl)c(Cl)c2)c2ccc(C(=O)NC3CCC3)cc21` [(5S,8S)—N-cyclobutyl-5-(3,4-dichlorophenyl)-8-(dimethylamino)-5,6,7,8-tetrahydronaphthalene-2-carboxamide], the half-inhibitory concentration (IC50) in data set [1] (setting [2]) amounted to 5.78 µM. Besides, the CC50 in “in vitro” (CC50 (uM) [SG]) was 13.4 µM. Consider `CN(C)[C@H]1CC[C@@H](c2ccc(Cl)c(Cl)c2)c2ccc(C(=O)NC3CC3)cc21` [(5S,8S)—N-cyclopropyl-5-(3,4-dichlorophenyl)-8-(dimethylamino)-5,6,7,8-tetrahydronaphthalene-2-carboxamide], for which the IC50 in data set [1] (setting [2]) amounted to 7.3 µM. Moreover, in “in vitro” (CC50 (uM) [SG]), the CC50 was found to be 25.4 µM.

With `CN(C(=O)c1ccc2c(c1)[C@@H](N(C)C)CC[C@H]2c1ccc(Cl)c(Cl)c1)C1CC1` [(5S,8S)—N-cyclopropyl-5-(3,4-dichlorophenyl)-8-(dimethylamino)-N-methyl-5,6,7,8-tetrahydronaphthalene-2-carboxamide], in data set [1] (setting [2]), the IC50 stood at 13 µM. For the same molecule, in the data set “in vitro” (CC50 (uM) [SG]), the CC50 came out at 26.3 µM.

Regarding `CNc1cc(S(N)(=O)=O)ccc1Oc1ccc(SC)c(C)c1` [Compound 62, 4-(3-methyl-4-(methylthio)phenoxy)-3-(methylamino)benzenesulfonamide], in “in vitro” (CC50 (uM) [SG]), the CC50 is above 50 µM. With `Nc1n[n+]([O-])c2ccccc2[n+]1[O-]` [Tirapazamine, reference compound], 1.83 µM corresponded to half-maximal inhibition in data set [1] (Huh-7) (IC50). Still for that read-out and setting: the same measure for `O=C(O)Cc1cc(I)c(Oc2ccc(O)c(I)c2)c(I)c1` [Tiratricol, reference compound]: 15.6 µM; for `Cc1ccc(O)c([C@H](CCN(C(C)C)C(C)C)c2ccccc2)c1` [Tolterodine (e.g., tartrate), Tolterodine, reference compound]: 27.2 µM. Same read-out and setting: with `CC[C@@]1(O)C(=O)OCc2c1cc1n(c2=O)Cc2cc3c(CN(C)C)c(O)ccc3nc2-1` [Topotecan (e.g., hydrochloride), topotecan, reference compound] the figure was 0.095 µM; with `CN(C)CCOc1ccc(/C(=C(/CCCl)c2ccccc2)c2ccccc2)cc1` [Toremifene, reference compound], 15.9 µM. The same measure, in the same setting: with `COc1cc2c(cc1OC)-c1c/c(=N\c3c(C)cc(C)cc3C)n(C)c(=O)n1CC2` [Trequinsin (e.g., hydrochloride), Trequinsin, reference compound] the figure was 2.93 µM.

In data set [1] (Huh-7), `CN1CCN(CCCN2c3ccccc3Sc3ccc(C(F)(F)F)cc32)CC1` [Trifluoperazine (e.g., hydrochloride), Trifluoperazine, reference compound] displayed a 50% inhibitory concentration (IC50) of 4.97 µM. For `O=C(CCCN1CCC(O)(c2cccc(C(F)(F)F)c2)CC1)c1ccc(F)cc1` [Trifluperidol, reference compound], half-maximal inhibition in data set [1] (Huh-7) (IC50) was put at 7.8 µM. Same read-out and setting: with `O=c1[nH]c(=O)n([C@H]2C[C@H](O)[C@@H](CO)O2)cc1C(F)(F)F` [Trifluridine, trifluridine, reference compound] the figure was 0.38 µM; with `CC(CN(C)C)CN1c2ccccc2CCc2ccccc21` (stereo not shown) [Trimipramine (e.g., maleate), Trimipramine, reference compound], 15.6 µM. Turning to `O=C1CC(=O)c2c(Cl)c(Cl)c(Cl)c(Cl)c21` [UCH-L3 inhibitor, 4,5,6,7-Tetrachloroindan-1,3-dione, reference compound], the IC25 in data set [1] (GETYPE1B, Huh-7, read-out: IC25 (values noted with an asterisk)) came out at 19.7 µM. As to `CC(C)[C@H](N)C(=O)O[C@@H]1[C@@H](CO)O[C@@H](n2ccc(N)nc2=O)[C@]1(C)O` [Valopicitabine (NM-283), Valopicitabine, reference compound], the IC50 in data set [1] (Huh-7) turned out to be 11.2 µM. On the same count and under the same terms, the same measure for `COc1cc(C=O)ccc1O` [Vanillin (e.g., acetate), Vanillin]: 3.73 µM.

`Nc1ncnc2c1ncn2[C@@H]1O[C@H](CO)[C@@H](O)[C@@H]1O` [Vidarabine, vidarabine, reference compound] came in with a concentration for half-maximal inhibition (IC50) in data set [1] (Huh-7) of 26.7 µM. In the case of `CC[C@]1(O)C[C@H]2CN(CCc3c([nH]c4ccccc34)[C@@](C(=O)OC)(c3cc4c(cc3OC)N(C=O)[C@H]3[C@@](O)(C(=O)OC)[C@H](OC(C)=O)[C@]5(CC)C=CCN6CC[C@]43[C@@H]65)C2)C1` [Vincristine (e.g., sulfate), Vincristine, reference compound], the midpoint of inhibition in data set [1] (Huh-7), the IC50, lay at 0.02 µM.

In data set [1] (Huh-7), `COC[C@H]1OC(=O)c2coc3c2[C@@]1(C)C1=C(C3=O)[C@@H]2CCC(=O)[C@@]2(C)C[C@H]1OC(C)=O` [Wortmannin, wortmannin, reference compound] registered an IC50 of 3.16 µM. Take `COc1cc(C(=O)NS(=O)(=O)c2ccccc2C)ccc1Cc1cn(C)c2ccc(NC(=O)OC3CCCC3)cc12` [Zafirlukast, reference compound]: the IC50 in data set [1] (Huh-7) is 18.5 µM; in data set [1] (Huh-7, read-out: IC50 in our hands), 18.5 µM. As for `CN(C)C/C=C(/c1ccc(Br)cc1)c1cccnc1` [Zimelidine (e.g., dihydrochloride), Zimelidine, reference compound], the midpoint of inhibition in data set [1] (Huh-7), the IC50, lay at 15.1 µM.
